These results are taken from patent US9387221B2, “SDF-1 binding nucleic acids and the use thereof in cancer treatment” (NOXXON Pharma AG, priority 2010, dated 2016).

In one data set the test system is Human CXCR7. Nature of the data set: CXCR7 β-arrestin complementation assay (PathHunter), CHO cells. Type of data set: cell-based. The following applies: 10 nM human SDF-1, 90 minutes; read-out: IC50, CXCR7 activation (β-galactosidase). As for the experimental part:
Besides CXCR4, SDF-1 also binds to the chemokine receptor CXCR7. The inhibitory potential of SDF-1-binding Spiegelmer NOX-A12 towards CXCR7 was tested in a complementation assay with CHO cells stably expressing CXCR7 and β-arrestin both fused to a fragment of β-galactosidase (PathHunter™—β-arrestin assay, DiscoveRX, CA, USA). Upon SDF-1 binding β-arrestin complexed with CXCR7 and thus led to complementation and activation of the β-galactosidase which was measured with a chemiluminescence substrate.
PathHunter eXpress CHO-K1 Human CXCR7 β-arrestin cells were plated for 48 hours in OCC2 Medium and stimulated with 10 nM SDF-1 and various concentrations of SDF-1-binding Spiegelmer NOX-A12 for 90 minutes. Following stimulation, signal was detected using the PathHUnter Detection Kit and the manufacturer's recommended protocol (DiscoveRX, CA, USA).

Data set [1] concerns the target T1, SDF-1 (Homo sapiens, UniProt P48061). Nature of the data set: Inhibition of SDF-1-induced chemotaxis, Nalm-6 cells. The data set is classed as cell-based. Conditions: 0.3 nM human SDF-1. As for the experimental part:
The human T cell leukemia cell line Jurkat, the human leukemic monocyte lymphoma cell line U937, the human pre-B cell leukemia cell line BV-173 and human pre-B ALL cell line Nalm-6 express CXCR4. […] All cells used were obtained from the DSMZ (Braunschweig). All cell lines were cultivated at 37° C. and 5% CO2 in RPMI 1640 medium with Glutamax (Invitrogen, Karlsruhe, Germany) which contains 10% fetal bovine serum, 100 units/ml penicillin and 100 μg/ml streptomycin (Invitrogen, Karlsruhe, Germany). One day before the experiment, cells were seeded in a new T175 flask with a density of 0.3×10^6/ml (Jurkat, U937, BV-173) or 0.75×10^6/ml (Nalm-6), respectively.
For the experiment, cells were centrifuged (5 min at 300 g), resuspended, counted and washed once with 15 ml HBH (Hanks balanced salt solution containing 1 mg/ml bovine serum albumin and 20 mM HEPES; Invitrogen, Karlsruhe, Germany). Then the cells were resuspended at 1.33×10^6/ml (Jurkat, U937, BV-173) or 2.67×10^6/ml (Nalm-6), respectively. […]
For evaluation, fluorescence values were corrected for background fluorescence (no cells in well). Then the difference between experimental conditions with and without SDF-1 was calculated. The value for the sample without Spiegelmer (SDF-1 only) was set 100% and the values for the samples with Spiegelmer were calculated as percent of this. […]
Target sequence in this assay (P48061 22-89): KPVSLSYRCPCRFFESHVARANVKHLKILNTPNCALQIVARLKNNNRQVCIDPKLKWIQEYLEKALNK

The target of another data set is human SDF-1α (Homo sapiens, UniProt P48061). Nature of the data set: Surface plasmon resonance measurement (Biacore 2000). The data set is classed as binding. The following applies: Spiegelmer (L-RNA), 37° C. As for the experimental part:
The Biacore 2000 instrument (Biacore AB, Uppsala, Sweden) was used to analyze binding of Spiegelmers to human SDF-1α. When coupling of human SDF-1α was to be achieved via amine groups, human SDF-1α was dialyzed against water for 1-2 h (Millipore VSWP mixed cellulose esters; pore size, […]) to remove interfering amines. CM4 sensor chips (Biacore AB, Uppsala, Sweden) were activated before protein coupling by a 35-μl injection of a 1:1 dilution of 0.4 M NHS and 0.1 M EDC at a flow of 5 μl/min. Human MCP-1 or human SDF-1α was then injected in concentrations of 0.1-1.5 μg/ml at a flow of 2 μl/min until the instrument's response was in the range of 1000-2000 RU (relative units). Unreacted NHS esters were deactivated by injection of 35 μl ethanolamine hydrochloride solution (pH 8.5) at a flow of 5 μl/min. The sensor chip was primed twice with binding buffer and equilibrated at 10 μl/min for 1-2 hours until the baseline appeared stable. For all proteins, kinetic parameters and dissociation constants were evaluated by a series of Spiegelmer injections at concentrations of 1000, 500, 250, 125, 62.5, 31.25, and 0 nM in selection buffer (Tris-HCl, 20 mM; NaCl, 137 mM; KCl, 5 mM; CaCl2, 1 mM; MgCl2, 1 mM; Tween20, 0.1% [w/v]; pH 7.4). In all experiments, the analysis was performed at 37° C. using the Kinject command defining an association time of 180 and a dissociation time of 360 seconds at a flow of 10 μl/min. Data analysis and calculation of dissociation constants (KD) was done with the BIAevaluation 3.0 software (BIACORE AB, Uppsala, Sweden) using the Langmuir 1:1 stochiometric fitting algorithm.
On the technique in general: SPR reads the build-up and loss of mass on a sensor chip optically.

Data set [2] deals with T1, SDF-1. Nature of the data set: SDF-1 dependent chemotaxis of primary chronic lymphocytic leukemia cells. The data set is classed as cell-based.
Target sequence in this assay (P48061 22-89 limits assumed): as the sequence (P48061 22-89) above

{PEG40k} = 40 kDa polyethylene glycol

Sequence of human SDF-1α (P48061 22-89): as above

One may read the IC50 as the point on the concentration scale where inhibition reaches its midpoint. For orientation: Kd means the equilibrium constant for the complex coming apart. A higher Kd goes with lower affinity. For “5′-40 kDa-PEG-GCGUGGUGUGAUCUAGAUGUAUUGGCUGAUCCUAGUCAGGUACGC (5' {PEG40k}, sugars by position and backbone not given here) [NOX-A12]”, the IC50 in the data set on Human CXCR7 turned out to be 5.4 nM. In addition, the “inhibition of SDF-1 induced chemotaxis” value with SDF-1 [1] is given as “Inhibition”. Further, the Kd with human SDF-1α is 0.2 nM. In addition, in the data set with SDF-1 [2], the “block of SDF-1 dependent chemotaxis” value is recorded as “effectively blocked”.
